For assay [1], the target named is T1, human α2-GABAA receptor (BZD site, membrane protein of HEK293 cells) (Homo sapiens, UniProt P18507+P47869).
T1 construct: expressed in transfected cells
In words: Radioligand competitive binding assay (3H-flunitrazepam) at the BZD site of the α2-GABAA receptor. As to conditions: competition with 1 nM 3H-flunitrazepam; Ki calculated from IC50; read-out: α2 Ki.

Assay [2] deals with T2, human α1-GABAA receptor (α1-GABAAR-HEK293 cells) (Homo sapiens, UniProt P14867+P18507).
T2 construct: expressed in transfected cells
As to the kind of experiment: Whole-cell patch-clamp electrophysiology, positive allosteric modulatory activity on α1-GABAA receptor. In kind it is cell-based. As to conditions: read-out: α1-GABAA positive allosteric modulatory activity.

The structures appear in SMILES notation.

The term Ki denotes a dissociation constant, usually derived from enzyme kinetics or from competition with a known ligand. Take `CCN1C(=O)COc2cc(-c3cc(-c4cnnc5c4ncn5CC)ccc3F)c(OC)cc21` [Example 31, 4-Ethyl-7-(5-(7-ethyl-7H-imidazo[4,5-c]pyridazin-4-yl)-2-fluorophenyl)-6-methoxy-2H-benzo[b][1,4]oxazin-3(4H)-one]: in assay [1], the Ki is 6.85 nM. Moreover, in assay [2], the activation at 0.1 µM was determined as 13%.

In the case of `COc1cc2c(cc1-c1cc(-c3cnnc4c3ncn4C(C)C)ccc1F)OCC(=O)N2C` [Example 36, 7-(2-Fluoro-5-(7-isopropyl-7H-imidazo[4,5-c]pyridazin-4-yl)phenyl)-6-methoxy-4-methyl-2H-benzo[b][1,4]oxazin-3(4H)-one], the Ki in assay [1] was 5.73 nM. In addition, the activation at 0.1 µM in assay [2] is 25%.

On to `CCn1cnc2c(-c3ccc(F)c(-c4cc5c(cc4OC)N(C)C(=O)CO5)c3)cnnc21` [Example 42, 7-(5-(7-Ethyl-7H-imidazo[4,5-c]pyridazin-4-yl)-2-fluorophenyl)-6-methoxy-4-methyl-2H-benzo[b][1,4]oxazin-3(4H)-one], for which the Ki in assay [1] was 2.92 nM. For the same molecule, in assay [2], the activation at 0.1 µM was 27%.

Regarding `CCn1cnc2c(-c3ccc(F)c(-c4cc5oc(=O)n(C)c5cc4OC)c3)cnnc21` [Example 87, 6-(5-(7-Ethyl-7H-imidazo[4,5-c]pyridazin-4-yl)-2-fluorophenyl)-5-methoxy-3-methylbenzo[d]oxazol-2(3H)-one], in assay [1], the Ki is 3.38 nM. Besides, the activation at 0.1 µM in assay [2] was 3%.

In the case of `CCn1cnc2c(-c3ccc(F)c(-c4cc5c(cc4OC)N(C)C(=O)C5)c3)cnnc21` [Example 161, 5-(5-(7-Ethyl-7H-imidazo[4,5-c]pyridazin-4-yl)-2-fluorophenyl)-6-methoxy-1-methyldihydro-2-one], the inhibition constant (Ki) in assay [1] is 8.7 nM. Also, the activation at 0.1 µM in assay [2] stood at 65%.

The values are drawn from patent publication US20260159519A1, “IMIDAZOPYRIDAZINE SUBSTITUTED BENZENE RING DERIVATIVE, PREPARATION METHOD, PHARMACEUTICAL COMPOSITION AND USE” (SHANGHAI SIMR BIOTECHNOLOGY CO., LTD., priority 2022, published 2026).
